Laboratory results from the supplement of paper PMC5908809.

Columns and labels:
[1] = system: NK-YS (IL-2 2.5 ng/mL); assay: drug sensitivity score (DSS) (DSS units); higher = more sensitive; extreme values may be limits of the assay; conditions: 72 h
[2] = system: IMC-1 (IL-2 20 ng/mL); assay: as above; conditions: 72 h
[3] = system: normal primary NK cells, pool 3 (3 donors) (IL-2 2.5 ng/mL); assay: as above; conditions: 72 h
[4] = system: KHYG-1 (IL-2 2.5 ng/mL); assay: as above; conditions: 72 h
[5] = system: NK-92 (IL-2 2.5 ng/mL); assay: as above; conditions: 72 h
[6] = system: normal primary NK cells, pool 1 (3 donors) (IL-2 2.5 ng/mL); assay: as above; conditions: 72 h
[7] = system: DERL-7 (IL-2 2.5 ng/mL); assay: as above; conditions: 72 h
[8] = system: normal primary NK cells, pool 2 (3 donors) (IL-2 2.5 ng/mL); assay: as above; conditions: 72 h
[9] = system: SNK-6 (IL-2 2.5 ng/mL); assay: as above; conditions: 72 h
[10] = system: normal primary NK cells, pool 1 (3 donors), resting (IL-2 0 ng/mL); assay: as above; conditions: 72 h
[11] = system: KAI3 (IL-2 2.5 ng/mL); assay: as above; conditions: 72 h
[12] = system: NKL (IL-2 2.5 ng/mL); assay: as above; conditions: 72 h
[13] = system: YT (IL-2 2.5 ng/mL); assay: as above; conditions: 72 h
[14] = system: NK-YS (IL-2 2.5 ng/mL); assay: percent inhibition of viability; higher = more inhibition; conditions: 72 h
[15] = system: IMC-1 (IL-2 20 ng/mL); assay: as above; conditions: 72 h
[16] = system: normal primary NK cells, pool 3 (3 donors) (IL-2 2.5 ng/mL); assay: as above; conditions: 72 h
[17] = system: KHYG-1 (IL-2 2.5 ng/mL); assay: as above; conditions: 72 h
[18] = system: NK-92 (IL-2 2.5 ng/mL); assay: as above; conditions: 72 h
[19] = system: normal primary NK cells, pool 1 (3 donors) (IL-2 2.5 ng/mL); assay: as above; conditions: 72 h
[20] = system: DERL-7 (IL-2 2.5 ng/mL); assay: as above; conditions: 72 h
[21] = system: normal primary NK cells, pool 2 (3 donors) (IL-2 2.5 ng/mL); assay: as above; conditions: 72 h
[22] = system: SNK-6 (IL-2 2.5 ng/mL); assay: as above; conditions: 72 h
[23] = system: normal primary NK cells, pool 1 (3 donors), resting (IL-2 0 ng/mL); assay: as above; conditions: 72 h
[24] = system: KAI3 (IL-2 2.5 ng/mL); assay: as above; conditions: 72 h
[25] = system: NKL (IL-2 2.5 ng/mL); assay: as above; conditions: 72 h
[26] = system: YT (IL-2 2.5 ng/mL); assay: as above; conditions: 72 h
[27] = system: normal NK cells expanded with K562-aAPC; assay: as above; conditions: 72 h, IL-2 2.5 ng/mL
Method: (§1)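 Drug sensitivity and resistance testing on K562-aAPC-expanded normal NK cells: 5 concentrations (10-fold steps over a 10,000-fold range), 72 h at 37 °C, viability by CellTiter-Glo normalised to DMSO and benzethonium chloride controls; DSS from the fitted curve.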

[28] = system: normal NK cells expanded with K562-aAPC; assay: drug sensitivity score (DSS) (DSS units); higher = more sensitive; extreme values may be limits of the assay; conditions: 72 h; IL-2 2.5 ng/mL
Method: as §1

Cn1cnc2c(F)c(Nc3ccc(Br)cc3F)c(C(=O)NOCCO)cc21 [Binimetinib] (max concentration tested 1000 nM)
Conditions | drug sensitivity score
[1] | 0.72
[2] | 0
[3] | 0
[4] | 5.14
[5] | 0
[6] | 4.75
[7] | 3.71
[8] | 0
[9] | 0
[10] | 1.99
[11] | 4.5
[12] | 10.4
[13] | 0.31
[28] | 0.91

percent inhibition of viability [%]
Conditions | 0.1 nM | 1 nM | 10 nM | 100 nM | 1000 nM
[14] | -5.25 | -2.09 | -0.43 | 5.51 | 15.3
[15] | -6 | -0.56 | -0.39 | 4.96 | 6.74
[16] | -5.24 | 2.75 | -0.18 | 2.58 | 2.52
[17] | -8.34 | -1.29 | 0.25 | 24.1 | 42.7
[18] | -10.1 | -5.18 | -13.1 | 0.36 | -1.28
[19] | -6.5 | 12.6 | 14.8 | 18.1 | 22.7
[20] | 1.19 | 7.3 | 10.5 | 16.3 | 33.7
[21] | -7.84 | -6.09 | 8.89 | -1.5 | 11
[22] | -19.8 | -4.3 | -10.5 | -10.4 | -8.36
[23] | -4.5 | 21.4 | 12.5 | 9.21 | 17.1
[24] | -1.37 | 4.03 | 7.85 | 24.3 | 29.6
[25] | -7.91 | -8.09 | 19.3 | 43.6 | 53.2
[26] | -6.43 | -3.81 | -0.11 | 2.57 | 13.4
[27] | 1.57 | -5.49 | -0.07 | 6.65 | 16.2

CCCCC(=O)OCC(=O)[C@]1(O)Cc2c(O)c3c(c(O)c2[C@@H](O[C@H]2C[C@H](NC(=O)C(F)(F)F)[C@H](O)[C@H](C)O2)C1)C(=O)c1c(OC)cccc1C3=O [Valrubicin] (max concentration tested 5000 nM)
Conditions | drug sensitivity score
[1] | 21
[2] | 20.7
[3] | 12.3
[4] | 17.5
[5] | 17.7
[6] | 14.7
[7] | 22.9
[8] | 14.2
[9] | 18.6
[10] | 16.1
[11] | 17.4
[12] | 35.2
[13] | 15.8
[28] | 12.2

percent inhibition of viability [%]
Conditions | 0.5 nM | 5 nM | 50 nM | 500 nM | 5000 nM
[14] | -5.71 | 4.57 | 40.3 | 86.6 | 101
[15] | -8.69 | 1.1 | 16.2 | 99.5 | 101
[16] | -11.9 | -6.83 | 15.7 | 53.2 | 98.4
[17] | -6.36 | 1.91 | 9.03 | 89.6 | 109
[18] | -14.1 | -10.7 | 10 | 89.7 | 105
[19] | 2.9 | -5.69 | 4.41 | 76 | 97.4
[20] | 1.97 | -4.8 | 35.6 | 99.1 | 101
[21] | -13.8 | -9.19 | 12.8 | 67.3 | 95.2
[22] | 10.3 | 28.7 | 23 | 89.2 | 86
[23] | -3.66 | -27.1 | -0.41 | 88.2 | 92.3
[24] | -21.3 | -1.05 | 42.1 | 62.3 | 85.2
[25] | -11.4 | 33.3 | 101 | 105 | 109
[26] | -0.05 | 4.95 | 0.64 | 87.1 | 109
[27] | -4.09 | -1.21 | 4.69 | 55.8 | 101

COc1cc2c(Oc3ccc4[nH]c(C)cc4c3F)ncnc2cc1OCCCN1CCCC1 [Cediranib] (max concentration tested 1000 nM)
Conditions | drug sensitivity score
[1] | 0
[2] | 1.2
[3] | 0
[4] | 0
[5] | 1.88
[6] | 0
[7] | 0
[8] | 0
[9] | 0
[10] | 0
[11] | 0
[12] | 0
[13] | 0
[28] | 0.03

percent inhibition of viability [%]
Conditions | 0.1 nM | 1 nM | 10 nM | 100 nM | 1000 nM
[14] | -2.57 | -1.64 | -1.64 | -2.9 | 4.62
[15] | -5.84 | 1.16 | -0.8 | 8.28 | 17.6
[16] | -13.7 | -14.2 | -5.69 | -12.7 | -3.19
[17] | 4.26 | 1.2 | 0.25 | 3.56 | 5.7
[18] | -10.6 | 3.93 | 7.82 | 10.5 | 25.9
[19] | 4.11 | -11.2 | -8.24 | -9.08 | -10.8
[20] | 0.36 | 1.65 | 5.2 | 3.45 | 7.76
[21] | -4.71 | 1.73 | 4.28 | -4.99 | 7
[22] | -0.01 | -5.98 | -7.81 | 1.67 | -2.98
[23] | 4.39 | -7.82 | 2.26 | -0.33 | 6.25
[24] | 4.2 | -2.39 | -4.78 | -7.3 | 2.49
[25] | -22.1 | -12.6 | -8.18 | 4.3 | -2.96
[26] | -2.86 | -1.1 | -1.25 | -2.55 | 7.27
[27] | -3.67 | -0.35 | -1.67 | 10.2 | 9.48

N#CC[C@H](C1CCCC1)n1cc(-c2ncnc3[nH]ccc23)cn1 [Ruxolitinib] (max concentration tested 10000 nM)
Conditions | drug sensitivity score
[1] | 19.8
[2] | 12.6
[3] | 18
[4] | 32.2
[5] | 25.6
[6] | 18.5
[7] | 27.1
[8] | 19.8
[9] | 25.9
[10] | 0.6
[11] | 32.2
[12] | 32.6
[13] | 17.8
[28] | 26.7

percent inhibition of viability [%]
Conditions | 1 nM | 10 nM | 100 nM | 1000 nM | 10000 nM
[14] | 3.29 | 10.2 | 48.2 | 68.6 | 84.1
[15] | 1.77 | -5.31 | 5.62 | 58.7 | 99.6
[16] | 3.79 | 6.55 | 43 | 64.5 | 74.2
[17] | 7.19 | 19.2 | 94.1 | 108 | 108
[18] | 14.7 | 23.2 | 54.9 | 93.3 | 105
[19] | 2.57 | 6.3 | 49.3 | 58 | 74.3
[20] | 9.24 | 20.8 | 64.2 | 101 | 101
[21] | -1.35 | 14.5 | 50.1 | 65 | 71.7
[22] | 7.33 | 12.7 | 73.5 | 73.9 | 85.4
[23] | 7.5 | -6.83 | 11.8 | -24.4 | 27.4
[24] | 18.2 | 33.2 | 84.8 | 97.7 | 101
[25] | -1.94 | 49.5 | 75.1 | 94.7 | 101
[26] | 9.67 | 13.1 | 30.9 | 75.8 | 84.3
[27] | 2.08 | 18.6 | 65.1 | 97.8 | 98.6

O=C(/C=C/c1cccc(S(=O)(=O)Nc2ccccc2)c1)NO [Belinostat] (max concentration tested 10000 nM)
Conditions | drug sensitivity score
[1] | 20.9
[2] | 21.2
[3] | 20.1
[4] | 22.9
[5] | 24.5
[6] | 22.5
[7] | 21.6
[8] | 21.2
[9] | 21.7
[10] | 22.9
[11] | 24.1
[12] | 20.9
[13] | 20.1
[28] | 20.8

percent inhibition of viability [%]
Conditions | 1 nM | 10 nM | 100 nM | 1000 nM | 10000 nM
[14] | -1.97 | -1.76 | 21 | 97.5 | 109
[15] | 2.36 | -0.13 | 20.2 | 99.6 | 101
[16] | -2.35 | -1.35 | 15.5 | 96.3 | 98.3
[17] | -0.75 | -0.46 | 35 | 108 | 110
[18] | 5.07 | 14.1 | 52.2 | 107 | 106
[19] | 3.19 | 9.82 | 43.7 | 96.4 | 98.7
[20] | -0.73 | 5.09 | 23.1 | 100 | 101
[21] | -8.09 | 0.56 | 31 | 93.9 | 95.6
[22] | -0.17 | -5.01 | 28.3 | 97.2 | 101
[23] | -4.94 | 0.46 | 53.2 | 87.1 | 91.7
[24] | 7.26 | 14.3 | 51.9 | 94.6 | 109
[25] | 5.5 | 10.4 | 37.5 | 87.9 | 108
[26] | 4.17 | 3.96 | 11.8 | 105 | 109
[27] | 0.58 | 6.04 | 16.8 | 99.6 | 101
